Reference: patent US20040077601A1, “Methods and compositions relating to isoleucine boroproline compounds” (Point Therapeutics, Inc., priority 2002, published 2004)

Experiments:
[1] = system: chemokine KC; assay: Serum levels of the chemokine KC by ELISA in mice after administration
[2] = system: WEHI 164 tumor cells; assay: WEHI 164 mouse tumor model (subcutaneous inoculation of 4×10^6 tumor cells); format: in vivo, mice; settings: for Tumor sizes, subcutaneous compared to oral: day 20; for Tumor sizes (mean tumor volumes) on day 20 versus saline control: all 3 doses, twice daily day 2 to day 19, n=10; for Incidence of tumor rejection (%): recorded on day 20
Protocol: FIG. 2. Comparison of the anti-tumor activity of Ile-boroPro administered orally or by subcutaneous injection in the WEHI 164 mouse tumor model. Mice were inoculated subcutaneously with 4×10^6 tumor cells and administered Ile-boroPro twice daily from day 2 to day 19 after tumor inoculation, either by oral gavage (open bars) or subcutaneous injection (solid bars). Control mice received saline (hatched bar). The data represent mean tumor volumes±SEM (n=10) were recorded on day 20.
Mice were inoculated subcutaneously with 4×10^6 WEHI 164 tumor cells and administered 2-, 5- or 10-μg doses of Ile-boroPro twice daily from day 2 to […] after tumor inoculation, either by oral gavage or subcutaneous injection. Control mice received saline. […] The greater efficacy of subcutaneous administration was also reflected in the incidence of tumor rejection in mice receiving treatment with the various doses of Ile-boroPro (Table 2). […] It should be noted that tumor rejection was never observed in mice inoculated with WEHI 164 and treated with saline.

[3] = target: serum DPP-IV (Mus musculus, UniProt P28843); assay: Serum DPP-IV activity in mice two hours after administration (indicator of bioavailability); format: in vivo; settings: 0.2-, 2.0-, 20-, 200-μg doses, subcutaneous injection vs oral gavage, serum two hours later
Sequence of serum DPP-IV (P28843 37-760 limits assumed): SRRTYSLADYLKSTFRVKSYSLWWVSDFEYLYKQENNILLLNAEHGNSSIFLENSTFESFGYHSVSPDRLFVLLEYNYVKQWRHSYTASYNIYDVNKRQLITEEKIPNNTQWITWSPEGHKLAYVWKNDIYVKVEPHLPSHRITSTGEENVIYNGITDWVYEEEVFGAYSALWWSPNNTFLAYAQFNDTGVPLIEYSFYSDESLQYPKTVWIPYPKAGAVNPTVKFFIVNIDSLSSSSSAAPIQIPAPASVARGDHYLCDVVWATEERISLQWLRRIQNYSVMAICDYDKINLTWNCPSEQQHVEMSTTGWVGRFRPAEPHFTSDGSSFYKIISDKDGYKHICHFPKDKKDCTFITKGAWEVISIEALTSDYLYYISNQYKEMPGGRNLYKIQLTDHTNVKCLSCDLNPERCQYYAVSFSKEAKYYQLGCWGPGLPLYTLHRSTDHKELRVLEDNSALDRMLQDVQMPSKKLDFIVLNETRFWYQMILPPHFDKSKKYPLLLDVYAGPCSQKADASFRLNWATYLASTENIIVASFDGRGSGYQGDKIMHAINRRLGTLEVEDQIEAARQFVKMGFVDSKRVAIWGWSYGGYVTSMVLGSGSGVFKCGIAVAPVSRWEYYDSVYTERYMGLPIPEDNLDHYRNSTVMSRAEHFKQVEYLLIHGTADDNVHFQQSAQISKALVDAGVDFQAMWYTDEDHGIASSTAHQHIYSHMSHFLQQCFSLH

Structure (SMILES): CCC(C)C(N)C(=O)N1CCCC1B(O)O (stereo not shown) [Ile-boroPro]
- Time of maximal increases in serum KC levels after administration [1]: 2 h
- Suppression of tumor growth, subcutaneous versus oral administration (tumor volumes on day 20) ([2]; 2-, 5- or 10-μg doses twice daily): more effective than oral administration in suppressing tumor growth
- Tumor sizes, subcutaneous compared to oral ([2]; 2-μg dose twice daily, P<0.0005): significantly smaller
- Tumor sizes, subcutaneous compared to oral ([2]; 5-μg dose twice daily, P<0.005): significantly smaller
- Tumor sizes (mean tumor volumes) on day 20 versus saline control ([2]; oral gavage, P<0.05): significant reduction in tumor sizes
- Incidence of tumor rejection (%) ([2]; oral, 10 μg twice daily day 2 to day 19, 2 separate experiments): caused tumor rejection
- Tumor sizes (mean tumor volumes) on day 20 versus saline control ([2]; subcutaneous injection, P<0.00005): significant reduction in tumor sizes
- Incidence of tumor rejection (%) ([2]; subcutaneous, 2 μg twice daily day 2 to day 19, one experiment): 60%
- Incidence of tumor rejection (%) ([2]; subcutaneous, 5 μg twice daily day 2 to day 19, one experiment): 70%
- Bioavailability judged from dose response of inhibition of serum DPP-IV, subcutaneous versus oral [3]: more bioavailable
